*1 amine or outer side, *2 acyl side, *3 side chain or, on linkers, in order; H or OH if unused. Where a SMILES comes first, the peptide text is derived from it. Bridges are numbered along the chain shown (N, C = ends). [ ]: non-standard residue; d: D form. The star is where a group is joined. ξ: configuration not given here. NMeAbu(3,3-F2-piperidino) = CN[C@@H](CCN1CCCC(F)(F)C1)C(=O)O; dhPhe(4-CONHMe,3-OMe) = CNC(=O)c1ccc(CC[C@@H](N)C(=O)O)cc1OC; NMePhe(3-Cl) = CN[C@@H](Cc1cccc(Cl)c1)C(=O)O; X12 = O=C([C@H](CCCC(O)C(F)(F)F)N[*:1])[*:2]; Tyr(3-F) = N[C@@H](Cc1ccc(O)c(F)c1)C(=O)O; NMehPhe = CN[C@@H](CCc1ccccc1)C(=O)O; X9 = O=C([C@@H](CN[*:1])COCCO)[*:2]; Propyl(2,2-Me2,3-OH) = CC(C)(CO)C*; NMeF = CN[C@@H](Cc1ccccc1)C(=O)O; NMeGABA = CN(CCCC(=O)[*:2])[*:1]; NMeξIle = CC[C@H](C)C(NC)C(=O)O; CH2CH(OH)CF3 = OC(C*)C(F)(F)F; CH2CONHtBu = CC(C)(C)NC(=O)C*; NMeL = CN[C@@H](CC(C)C)C(=O)O; Butyl(3R-OH) = C[C@@H](O)CC*; Propyl(2R-OH) = C[C@@H](O)C*; NMeV = CN[C@H](C(=O)O)C(C)C; NMeAbu = CC[C@H](NC)C(=O)O; NMeA = CN[C@@H](C)C(=O)O; Piperidide = C1CCN(*)CC1; CH2CMe2OH = CC(C)(O)C*; X8 = C1COC[C@@H](C*)N1; Me2NCH2CH2 = CN(C)CC*; NBuGly = CCCCNCC(=O)O; Isopentyl = CC(C)CC*; NPrGly = CCCNCC(=O)O; ξV = CC(C)C(N)C(=O)O; Sar = CNCC(=O)O; tBu = CC(C)(C)*
assay: in vitro; conditions: human, Caco-2, Caco-2

Row | SMILES | Papp
1 | CCCCN1CC(=O)N(C)[C@@H](C(C)C)C(=O)N[C@H](C(=O)N2CCCCC2)CC(=O)N(C)[C@@H](C)C(=O)N[C@@H](COCCN(C)C)C(=O)N(C)[C@@H](CC(C)C)C(=O)N(C)[C@@H](Cc2ccccc2)C(=O)N[C@@H](CC(C)C)C(=O)N(C)[C@@H](Cc2ccccc2)C(=O)N(C)[C@@H](CC(C)C)C(=O)N[C@@H]([C@@H](C)O)C1=O [pd56] ([NMeA]S(Me2NCH2CH2)[NMeL][NMeF]L[NMeF][NMeL]T[NBuGly][NMeV]D-Piperidide; lactam N-11) | 0.12 ×10⁻⁶ cm/s
2 | CCCCN1CC(=O)N(C)[C@@H](Cc2ccccc2)C(=O)N[C@@H](COCCN(C)C)C(=O)N(C)[C@@H](CC(C)C)C(=O)N[C@@H]([C@@H](C)O)C(=O)N(C)CC(=O)N(C)[C@@H](Cc2ccccc2)C(=O)N(C)[C@@H](CC)C(=O)N[C@@H](COCCC(C)C)C(=O)N(C)[C@@H](CC(C)C)C(=O)N[C@H](C(=O)N2CCCCC2)CC1=O [pd58] ([NBuGly][NMeF]S(Me2NCH2CH2)[NMeL]T[Sar][NMeF][NMeAbu]S(Isopentyl)[NMeL]D-Piperidide; lactam N-11) | 0.021 ×10⁻⁶ cm/s
3 | CC(C)C[C@@H]1NC(=O)[C@H](Cc2ccccc2)N(C)C(=O)[C@H](Cc2ccccc2)N(C)C(=O)[C@H](CC(C)C)NC(=O)[C@H](CC(C)C)N(C)C(=O)CCCN(C)C(=O)C[C@@H](C(=O)N2CCCCC2)NC(=O)[C@H](C)N(C)C(=O)[C@H](CCN2CCCC(F)(F)C2)N(C)C(=O)[C@H]([C@@H](C)O)NC(=O)[C@H](CC(C)C)N(C)C1=O [pd390] ([NMeGABA][NMeL]L[NMeF][NMeF]L[NMeL]T[NMeAbu(3,3-F2-piperidino)][NMeA]D-Piperidide; lactam N-11) | 2 ×10⁻⁶ cm/s

same assay, conditions: human, Caco-2, Caco-2 (cm/sec)

Row | SMILES | Papp
4 | CC(C)C[C@@H]1NC(=O)[C@H](CC(C)C)N(C)C(=O)[C@H](CCc2ccccc2)N(C)C(=O)[C@H](COCC(=O)NC(C)(C)C)NC(=O)[C@H](CC(C)C)N(C)C(=O)C[C@@H](C(=O)N2CCCCC2)NC(=O)[C@H](C)N(C)C(=O)CN(C)C(=O)[C@H]([C@@H](C)O)NC(=O)[C@H](CCc2ccccc2)N(C)C(=O)[C@H](CC(C)C)N(C)C1=O [AP16] ([NMeL]S(CH2CONHtBu)[NMehPhe][NMeL]L[NMeL][NMehPhe]T[Sar][NMeA]D-Piperidide; lactam N-11) | 0.27 ×10⁻⁶ cm/s
5 | CC[C@H]1C(=O)N[C@@H](CC(C)C)C(=O)N(C)[C@@H](CC(C)C)C(=O)N(C)[C@@H](Cc2ccccc2)C(=O)N[C@H](CCc2ccc(C(=O)NC)c(OC)c2)C(=O)N(C)[C@@H](CC(C)C)C(=O)N(C)[C@@H](CC(C)C)C(=O)N[C@@H]([C@@H](C)O)C(=O)N(C)CC(=O)N(C)[C@@H](CC(C)C)C(=O)N[C@H](C(=O)N2CCCCC2)CC(=O)N1C [AP212] ([NMeAbu]L[NMeL][NMeF][dhPhe(4-CONHMe,3-OMe)][NMeL][NMeL]T[Sar][NMeL]D-Piperidide; lactam N-11) | 0.64 ×10⁻⁶ cm/s
6 | CC(C)C[C@@H]1NC(=O)[C@H](C)N(C)C(=O)C[C@@H](C(=O)N2CCCCC2)NC(=O)[C@H](CC(C)C)N(C)C(=O)CN(C)C(=O)[C@H]([C@@H](C)O)NC(=O)[C@H](Cc2ccccc2)N(C)C(=O)[C@H](Cc2ccccc2)N(C)C(=O)[C@H](CC(C)C)NC(=O)[C@H](Cc2ccccc2)N(C)C(=O)[C@H](CC(C)C)N(C)C1=O [pd204] ([NMeA]L[NMeL][NMeF]L[NMeF][NMeF]T[Sar][NMeL]D-Piperidide; lactam N-11) | 2 ×10⁻⁶ cm/s
7 | CCCCN1CC(=O)N(C)[C@@H](Cc2ccccc2)C(=O)N(C)[C@@H](C(C)C)C(=O)N[C@@H](COC(C)(C)C)C(=O)N(C)[C@@H](CC(C)C)C(=O)N[C@H](C(=O)N2CCCCC2)CC(=O)N(C)CC(=O)N(C)[C@@H](Cc2cccc(Cl)c2)C(=O)N[C@@H](COCC(C)(C)CO)C(=O)N(C)[C@@H](CC(C)C)C(=O)N[C@@H]([C@@H](C)O)C1=O [AP123] ([Sar][NMePhe(3-Cl)]S(Propyl(2,2-Me2,3-OH))[NMeL]T[NBuGly][NMeF][NMeV]S(tBu)[NMeL]D-Piperidide; lactam N-11) | 0.8 ×10⁻⁶ cm/s
8 | CCCCN1CC(=O)N(C)[C@@H](Cc2ccccc2)C(=O)NC[C@@H](COCCO)C(=O)N(C)[C@@H](CC(C)C)C(=O)N[C@@H]([C@@H](C)O)C(=O)N(CCC)CC(=O)N(C)[C@@H](Cc2ccccc2)C(=O)N(C)[C@@H](CC(C)C)C(=O)N[C@@H](CC(C)C)C(=O)N(C)[C@@H](CC(C)C)C(=O)N[C@H](C(=O)N2CCCCC2)CC1=O [AP133] ([NBuGly][NMeF][X9][NMeL]T[NPrGly][NMeF][NMeL]L[NMeL]D-Piperidide; lactam N-11) | 1.8 ×10⁻⁶ cm/s
9 | CCCCN1CC(=O)N(C)[C@@H](CC(C)C)C(=O)N[C@@H](COC[C@@H]2COCCN2)C(=O)N(C)[C@@H](CC(C)C)C(=O)N(C)[C@@H](CC(C)C)C(=O)N[C@H](C(=O)N2CCCCC2)CC(=O)N[C@H](C(C)C)C(=O)N(C)[C@@H](Cc2ccccc2)C(=O)N[C@@H](CC(C)C)C(=O)N(C)[C@@H](CC)C(=O)N[C@@H]([C@@H](C)O)C1=O [AP239] ([dV][NMeF]L[NMeAbu]T[NBuGly][NMeL]S(X8)[NMeL][NMeL]D-Piperidide; lactam N-11) | 0.18 ×10⁻⁶ cm/s
10 | CCCCN1CC(=O)N(C)[C@@H](Cc2cccc(Cl)c2)C(=O)N(C)[C@@H](CC(C)C)C(=O)N[C@@H](COCC[C@@H](C)O)C(=O)N(C)[C@@H](CC(C)C)C(=O)N[C@H](C(=O)N2CCCCC2)CC(=O)N(C)CC(=O)N(C)[C@@H](Cc2ccccc2)C(=O)N[C@@H](C(C)C)C(=O)N(C)[C@@H](CC(C)C)C(=O)N[C@@H]([C@@H](C)O)C1=O [AP114] ([Sar][NMeF]V[NMeL]T[NBuGly][NMePhe(3-Cl)][NMeL]S(Butyl(3R-OH))[NMeL]D-Piperidide; lactam N-11) | 0.28 ×10⁻⁶ cm/s
11 | CC(C)CCOC[C@@H]1NC(=O)[C@H](Cc2ccccc2)N(C)C(=O)[C@H](Cc2ccccc2)N(C)C(=O)[C@H](COCC(C)(C)O)NC(=O)[C@H](CC(C)C)N(C)C(=O)CCCN(C)C(=O)C[C@@H](C(=O)N2CCCCC2)NC(=O)[C@H](CC(C)C)N(C)C(=O)[C@H](CC(C)C)N(C)C(=O)[C@H]([C@@H](C)O)NC(=O)[C@H](CC(C)C)N(C)C1=O [AP03] ([NMeGABA][NMeL]S(CH2CMe2OH)[NMeF][NMeF]S(Isopentyl)[NMeL]T[NMeL][NMeL]D-Piperidide; lactam N-11) | 0.46 ×10⁻⁶ cm/s
12 | CC(C)C[C@H]1NC(=O)C[C@@H](C(=O)N2CCCCC2)NC(=O)[C@H](C)N(C)C(=O)[C@H](CC(C)C)N(C)C(=O)[C@H](COC(C)(C)C)NC(=O)[C@H](CC(C)C)N(C)C(=O)CN(C)C(=O)[C@H]([C@@H](C)O)NC(=O)[C@H](CC(C)C)N(C)C(=O)[C@H](Cc2ccc(O)c(F)c2)NC(=O)[C@H](Cc2ccccc2)N(C)C1=O [pd118] ([dL][NMeF][Tyr(3-F)][NMeL]T[Sar][NMeL]S(tBu)[NMeL][NMeA]D-Piperidide; lactam N-11) | 0.2 ×10⁻⁶ cm/s
13 | CC(C)C[C@@H]1NC(=O)[C@H](Cc2ccccc2)N(C)C(=O)[C@@H](C(C)C)NC(=O)C[C@@H](C(=O)N2CCCCC2)NC(=O)[C@H](Cc2ccccc2)N(C)C(=O)[C@H](Cc2ccccc2)N(C)C(=O)[C@H](C(C)C)NC(=O)[C@H](CC(C)C)N(C)C(=O)CN(C)C(=O)[C@H]([C@@H](C)O)NC(=O)[C@H](CC(C)C)N(C)C1=O [pd221] ([dV][NMeF]L[NMeL]T[Sar][NMeL]V[NMeF][NMeF]D-Piperidide; lactam N-11) | 1.1 ×10⁻⁶ cm/s
14 | CCCCN1CC(=O)N(C)[C@@H](CC(C)C)C(=O)N[C@@H](COC(C)(C)C)C(=O)N(C)[C@@H](Cc2ccccc2)C(=O)N(C)[C@@H](CC(C)C)C(=O)N[C@H](C(=O)N2CCCCC2)CC(=O)N[C@H](C(C)C)C(=O)N(C)[C@@H](Cc2ccccc2)C(=O)N[C@@H](COC[C@@H](C)O)C(=O)N(C)[C@@H](CC(C)C)C(=O)N[C@@H]([C@@H](C)O)C1=O [AP71] ([dV][NMeF]S(Propyl(2R-OH))[NMeL]T[NBuGly][NMeL]S(tBu)[NMeF][NMeL]D-Piperidide; lactam N-11) | 0.71 ×10⁻⁶ cm/s

same assay, conditions: human, Caco-2, Caco-2 (cm/sec) Papp

Row | SMILES | Papp
15 | CC(C)C[C@H]1C(=O)N(C)[C@@H](Cc2ccccc2)C(=O)N(C)[C@@H](CC(C)C)C(=O)N[C@H](C(=O)N(C)[C@@H](Cc2ccccc2)C(=O)N[C@@H](Cc2ccccc2)C(=O)N2CCCCC2)CC(=O)N[C@H](C(C)C)C(=O)N[C@@H](C)C(=O)N[C@@H]([C@@H](C)O)C(=O)N(C)[C@@H](C)C(=O)N[C@@H](Cc2ccccc2)C(=O)N1C [pd241] ([dV]AT[NMeA]F[NMeL][NMeF][NMeL]D[NMeF]F-Piperidide; lactam N-9) | 0.058 ×10⁻⁶ cm/s
16 | CC[C@H](C)[C@@H]1NC(=O)[C@H](Cc2ccccc2)N(C)C(=O)[C@H](C)N(C)C(=O)C[C@@H](C(=O)N(C)[C@@H](Cc2ccccc2)C(=O)N(C)[C@@H](Cc2ccccc2)C(=O)N[C@@H](C)C(=O)N2CCCCC2)NC(=O)[C@H](CC(C)C)N(C)C(=O)[C@H](Cc2ccccc2)N(C)C(=O)[C@H]([C@@H](C)O)NC(=O)[C@H](CC(C)C)N(C)C(=O)[C@H](CC(C)C)N(C)C(=O)[C@H](C)N(C)C1=O [pd240] ([NMeA][NMeF]I[NMeA][NMeL][NMeL]T[NMeF][NMeL]D[NMeF][NMeF]A-Piperidide; lactam N-10) | 0.06 ×10⁻⁶ cm/s

same assay, conditions: human, Caco-2, Caco-2 (membrane permeability)

Row | SMILES | Papp
17 | CC[C@H](C)C1C(=O)NC(C(C)C)C(=O)N(C)CC(=O)N(C)[C@@H](CC(C)C)C(=O)N[C@H](C(=O)N2CCCCC2)CC(=O)N(C)[C@@H](C)C(=O)N[C@@H](CCCC(O)C(F)(F)F)C(=O)N(C)[C@@H](CC(C)C)C(=O)N(C)[C@@H](Cc2ccccc2)C(=O)N[C@@H](CC(C)C)C(=O)N(C)[C@@H](Cc2ccccc2)C(=O)N1C (stereo partly drawn) [Compound D15] ([NMeA][X12][NMeL][NMeF]L[NMeF][NMeξIle][ξV][Sar][NMeL]D-Piperidide; lactam N-11) | 0.61 ×10⁻⁶ cm/s
18 | CCCCN1CC(=O)N(C)[C@@H](Cc2ccccc2)C(=O)N(C)[C@@H](CC(C)C)C(=O)N[C@@H](COC(C)(C)C)C(=O)N(C)[C@@H](CC(C)C)C(=O)N[C@H](C(=O)N2CCCCC2)CC(=O)N(C)CC(=O)N(C)[C@@H](Cc2cccc(Cl)c2)C(=O)N[C@@H](COCC(O)C(F)(F)F)C(=O)N(C)[C@@H](CC(C)C)C(=O)N[C@@H]([C@@H](C)O)C1=O (stereo partly drawn) [Compound C06] ([Sar][NMePhe(3-Cl)]S(CH2CH(OH)CF3)[NMeL]T[NBuGly][NMeF][NMeL]S(tBu)[NMeL]D-Piperidide; lactam N-11) | 0.48 ×10⁻⁶ cm/s
